According to patent US20100210556A1, “USE OF A PEPTIDE AS A THERAPEUTIC AGENT” (priority 2007, published 2010):
Where no end group is shown, it is not given here. [ ]: non-standard residue; d: D form. βAla = NCCC(=O)O

Columns and labels:
HIV-1IIIB = format: cell-based; details: CEM-SS T-cells, peptides 10 micrograms per ml, 6 days post-infection, MTS
HUVEC = experiment: Endothelial tube formation assay; format: cell-based, human; details: 10 micrograms per ml, 20 hours
Description: Positive control was vehicle only. […] Raw data were expressed as average tubule lenghs in pixels±standard deviation.

HCMV strain AD169 = experiment: HCMV plaque formation assay in MRC-5 cells; details: HCMV AD169, 10 micrograms per ml, 7-10 days
RAW 264.7 cells = experiment: Phagocytosis assay (Fluorescein-labeled Escherichia coli, flow cytometry); details: 10 micrograms per ml, 30 min preincubation, 60 min ingestion
Experimental: RAW 264.7 (Mouse leukaemic monocyte macrophage cell line) cells were obtained from ATCC and grown in RPMI 1640 medium containing 10% FBS. Cells were incubated in 12×75 mm tubes at 37° C. with test peptides —10 micrograms per ml—for 30 min prior to adding Fluorescein-labeled Escherichia coli bacteria as the agent to be ingested. After the cells were incubated for additional 60 min at 37° C. and allowed to ingest the Fluorescein-labeled Escherichia coli bacteria, cells were fixed with 1% paraformaldehyde. The samples were then analyzed by flow cytometry to determine the amount of phagocytosis as a function of brightness (the greater the phagocytic activity, the more fluorescence in the macrophage population). Data are reported as % positive and the mean fluorescence intensity (MFI) of positively stained cells.

[1] = system: hepatitis B virus (HBV) ayw strain; experiment: HBV assay in HepG2-2.2.15 cells, secreted HBV DNA by TaqMan PCR; format: cell-based; details: 10 micrograms per ml, six days, HBV DNA in supernatant
A549 cells = experiment: Apoptosis prevention assay (C2 ceramide, Annexin-5); format: cell-based; details: human lung cells (A549), 10 micrograms per ml, 30 min pretreatment
Experimental: Human A549 cells (carcinomic human alveolar basal epithelial cells) were utilized in the experiments employing the Annexin-5 apoptosis assay. […] A549 cells were pretreated for 30 min with test peptides —10 micrograms per ml—followed by the exposure to C2 ceramide. […] C2 ceramide is a synthetic, membrane soluble analog of ceramide.

murine spleen cells = experiment: Th1/Th2 cytokine profiling assay (Ovalbumin-restimulated spleen cells, CBA kit); format: cell-based, Balb/c mice; details: 10 micrograms per ml, Ovalbumin restimulation, 72 hours
Description: The Balb/c mice (originated in 1923, it is a popular strain and is used in many different research disciplines. Also classified as an inbred from the production of 20 or more successive brother-sister matings, the Balb/c mouse is albino and small in size) were immunized on Days 1, 15, and 29 with Ovalbumin (Ovalbumin is the main protein found in egg white, commonly used to stimulate an immunological reaction in test animals) in PBS (5 micrograms/injection). On day 50, spleens of the mice were harvested (3 weeks after last boost with Ovalbumin). Cells were cultured (2×10^5/well in triplicate) and incubated with culture medium or test peptides —10 micrograms per ml—for 30 min. Thereafter, additional Ovalbumin was added to the cells at 10 micrograms/ml for in vitro restimulation of the cells. 72 hours later, cell supernatants were harvested and assayed using the Becton Dickinson Mouse Th1/Th2 Cytokine CBA Kit. This kit can be used to measure Interleukin-2 (IL-2), Interleukin-4 (IL-4), Interleukin-5 (IL-5), Interferon-γ (IFN-γ), and Tumor Necrosis Factor-α(TNF-α) protein levels in a single sample.

[2] = system: Primary Human endothelial cells (HUVEC); experiment: Endothelial cell migration assay; format: cell-based; details: 10 micrograms per ml, 22 hours
Experimental: Thereafter, designated concentration of testing peptides —10 micrograms per ml—was added in duplicate wells.

Compound	inhibition of HIV-1 activity (antiviral activity) (HIV-1IIIB)	inhibition of the tube formation of human endothelial cells (HUVEC) [%]	inhibition of HCMV plaque formation as compared to the virus control experiment (HCMV strain AD169)	induction of phagocytosis as compared to the control experiment (RAW 264.7 cells)	inhibition of HBV replication as compared to the virus control infection [1] [%]	reduction of ceramide-induced apoptosis (A549 cells)	change of the production of IFN-gamma (murine spleen cells)	change of the production of IL-4 (murine spleen cells)	change of the production of IL-5 (murine spleen cells)	change of the production of TNF-alpha (murine spleen cells)	induction of the production of IL-2 (murine spleen cells) [%]	inhibition of the migration of human endothelial cells [2] [%]
Cc1cn([C@H]2C[C@H](N=[N+]=[N-])[C@@H](CO)O2)c(=O)[nH]c1=O [AZT]	expected levels of antiviral activity											
CC(C)(C)NC(=O)[C@@H]1CN(Cc2cccnc2)CCN1C[C@@H](O)C[C@@H](Cc1ccccc1)C(=O)N[C@H]1c2ccccc2C[C@H]1O [indinavir]	expected levels of antiviral activity											
Ala-Ile-Phe-Ile-Phe-Ile-Arg-Trp-Leu-Leu-Lys-Leu-Gly-His-His-Gly-Arg-Ala-Pro-Pro-OH (AIFIFIRWLLKLGHHGRAPP-OH) [Peptide 1]		23	did not inhibit	did not induced phagocytosis	44.6	28.2%	did not significantly change	did not significantly change	did not significantly change	did not significantly change	156	19
[βAla]-His-OH [Peptide 2]		21	4.4%	48.6%	29.6	did not reduce	did not significantly change	did not significantly change	did not significantly change	did not significantly change	26.5	8
